From US11046699B2, “Pyrazolo-pyrimidin-amino-cycloalkyl compounds and their therapeutic uses” (RAPT THERAPEUTICS, INC., priority 2018, dated 2021)
Where a name gives a salt, the structure may show the parent alone. Read-outs that look alike come from different tables or passages of the source.

Target: GCN2 (Homo sapiens, UniProt Q9P2K8)
Experiment: GCN2 enzymatic endpoint assay: phosphorylation of GFP-eIF2α measured by TR-FRET (Lanthascreen)
Assay type: biochemical
Summary of the method: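 Reaction started with 2 μM ATP and 80 nM GFP-labelled eIF2α substrate at room temperature, stopped with EDTA after 90 minutes. Phospho-eIF2α detected by terbium-labelled antibody TR-FRET; activity taken as 520 nm (fluorescein) to 495 nm (terbium) emission ratio.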

[1] = tested as described in Example 77, compound and/or hydrochloride, dihydrochloride or trifluoroacetic acid salt, read-out: IC 50 Activity
[2] = GCN2 biochemical IC50, 4 nM GCN2, 2 μM ATP, 80 nM GFP-eIF2α, 90 min RT, read-out: GCN2 activity

Sequence of GCN2 (Q9P2K8 whole entry): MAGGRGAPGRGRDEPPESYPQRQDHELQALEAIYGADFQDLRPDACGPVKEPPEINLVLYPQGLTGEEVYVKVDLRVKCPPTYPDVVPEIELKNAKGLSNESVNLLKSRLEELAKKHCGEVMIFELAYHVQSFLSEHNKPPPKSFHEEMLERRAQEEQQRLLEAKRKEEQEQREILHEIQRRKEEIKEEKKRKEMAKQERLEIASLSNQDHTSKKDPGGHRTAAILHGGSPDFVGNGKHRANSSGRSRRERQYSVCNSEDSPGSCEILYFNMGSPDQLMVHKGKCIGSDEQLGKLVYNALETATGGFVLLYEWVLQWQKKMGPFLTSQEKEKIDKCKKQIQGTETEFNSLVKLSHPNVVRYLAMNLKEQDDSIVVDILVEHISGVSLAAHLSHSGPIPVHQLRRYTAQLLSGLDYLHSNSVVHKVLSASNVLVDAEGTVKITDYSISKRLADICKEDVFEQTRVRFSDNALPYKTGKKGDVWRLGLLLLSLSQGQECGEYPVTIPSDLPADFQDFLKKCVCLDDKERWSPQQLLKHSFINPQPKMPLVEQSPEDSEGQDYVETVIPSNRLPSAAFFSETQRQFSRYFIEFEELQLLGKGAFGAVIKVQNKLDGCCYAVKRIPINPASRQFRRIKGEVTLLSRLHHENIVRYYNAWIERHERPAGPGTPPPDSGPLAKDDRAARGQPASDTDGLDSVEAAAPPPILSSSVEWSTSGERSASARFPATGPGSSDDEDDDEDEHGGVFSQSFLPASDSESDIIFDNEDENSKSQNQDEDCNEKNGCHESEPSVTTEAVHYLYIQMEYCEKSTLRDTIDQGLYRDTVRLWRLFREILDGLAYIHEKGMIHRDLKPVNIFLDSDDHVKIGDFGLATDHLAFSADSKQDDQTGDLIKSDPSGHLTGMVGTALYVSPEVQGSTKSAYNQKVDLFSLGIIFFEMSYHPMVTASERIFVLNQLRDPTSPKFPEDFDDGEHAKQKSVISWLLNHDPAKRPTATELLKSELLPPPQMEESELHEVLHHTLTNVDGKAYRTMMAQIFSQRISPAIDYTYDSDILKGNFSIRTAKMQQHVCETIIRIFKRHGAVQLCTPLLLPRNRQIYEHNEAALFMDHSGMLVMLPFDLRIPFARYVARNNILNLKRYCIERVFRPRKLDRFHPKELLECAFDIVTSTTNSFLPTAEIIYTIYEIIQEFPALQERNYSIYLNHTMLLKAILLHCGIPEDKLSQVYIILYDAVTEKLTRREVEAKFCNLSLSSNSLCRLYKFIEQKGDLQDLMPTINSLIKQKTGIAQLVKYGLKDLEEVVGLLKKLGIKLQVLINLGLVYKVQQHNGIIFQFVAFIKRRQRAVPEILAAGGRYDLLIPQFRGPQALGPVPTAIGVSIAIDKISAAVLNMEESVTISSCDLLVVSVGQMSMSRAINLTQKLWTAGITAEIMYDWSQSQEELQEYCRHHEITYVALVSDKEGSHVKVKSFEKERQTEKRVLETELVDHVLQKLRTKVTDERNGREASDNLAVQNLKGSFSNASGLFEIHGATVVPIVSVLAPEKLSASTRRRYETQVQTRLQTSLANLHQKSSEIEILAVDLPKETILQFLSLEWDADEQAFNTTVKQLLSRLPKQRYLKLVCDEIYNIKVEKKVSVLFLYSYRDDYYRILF

`CNC(=O)[C@]1(C)CC[C@@H](Nc2ncc3c(Br)nn(-c4ccc(-c5nnc(C)s5)c(CCN)c4)c3n2)C1` [(1R,3R)-3-[[1-[3-(2-aminoethyl)-4-(5-methyl-1,3,4-thiadiazol-2-yl)phenyl]-3-bromo-pyrazolo[3,4-d]pyrimidin-6-yl]amino]-N,1-dimethyl-cyclopentane-carboxamide] was tested, and the IC50 [1] was 25 to 200 nM.

`O=C([C@@H]1CC[C@@H](Nc2ncc3c(Br)nn(-c4ccc5ncccc5c4)c3n2)C1)N1C[C@H]2C[C@@H]1CO2` [((1R,4R)-2-oxa-5-azabicyclo[2.2.1]heptan-5-yl) ((1R,3R)-3-((3-bromo-1-(quinolin-6-yl)-1H-pyrazolo[3,4-d]pyrimidin-6-yl)amino)cyclo-pentyl)methanone] was tested, and the IC50 [1] was 25 to 200 nM.

`CNC(=O)[C@]1(C)CC[C@@H](Nc2ncc3c(Br)nn(-c4cc(CC(C)(C)O)c5ncccc5c4)c3n2)C1` [(1R,3R)-3-[[3-bromo-1-[8-(2-hydroxy-2-methyl-propyl)-6-quinolyl]pyrazolo[3,4-d]pyrimidin-6-yl]amino]-N,1-dimethyl-cyclopentanecarboxamide] gave an IC50 [1] of 25 to 200 nM.

For `CNC(=O)[C@]1(C)CC[C@@H](Nc2ncc3c(Br)nn(-c4ccc(-c5ncco5)c(NC(=O)C5CNC5)c4)c3n2)C1` [N-[5-[3-bromo-6-[[(1R,3R)-3-methyl-3-(methylcarbamoyl)cyclopentyl]amino]pyrazolo[3,4-d]pyrimidin-1-yl]-2-oxazol-2-yl-phenyl]azetidine-3-carboxamide], the IC50 [1] was under 25 nM.

`O=C1CN(C(=O)[C@@H]2CC[C@@H](Nc3ncc4c(Br)nn(-c5cc(F)c6ncccc6c5)c4n3)C2)CN1` showed an IC50 [1] of 25 to 200 nM.

Compound `CNC(=O)[C@]1(C)CC[C@@H](Nc2ncc3c(Br)nn(-c4ccc(-c5nnc(CC(C)O)o5)cc4)c3n2)C1` (stereo partly drawn) [(1R,3R)-3-[[3-bromo-1-[4-[5-(2-hydroxy-propyl)-1,3,4-oxadiazol-2-yl]phenyl]pyrazolo [3,4-d]pyrimidin-6-yl]amino]-N,1-dimethyl-cyclopentanecarboxamide] has an IC50 [1] of 25 to 200 nM.

Work on `Cc1nnc(-c2ccc(-n3nc(Br)c4cnc(N[C@@H]5CC[C@@](C)(C(=O)N6CCOCC6)C5)nc43)cc2CCC#N)s1` yielded an IC50 [1] of 25 to 200 nM.

In the case of `CNC(=O)[C@@]1(CC(F)F)CC[C@@H](Nc2ncc3c(Br)nn(-c4cc(CCO)c5ncccc5c4)c3n2)C1` [(1S,3R)-3-[[3-bromo-1-[8-(2-hydroxyethyl)-6-quinolyl]pyrazolo[3,4-d]pyrimidin-6-yl]amino]-1-(2,2-difluoroethyl)-N-methyl-cyclopentanecarboxamide], the IC50 [1] is reported as 25 to 200 nM.

`CNC(=O)[C@]1(C)CC[C@@H](Nc2ncc3c(Br)nn(-c4cc(Cl)cc(C(=O)NC5CNC5)c4)c3n2)C1` [N-(azetidin-3-yl)-3-[3-bromo-6-[[(1R,3R)-3-methyl-3-(methylcarbamoyl)cyclopentyl]amino]pyrazolo[3,4-d]pyrimidin-1-yl]-5-chloro-benzamide] was tested, and the IC50 [1] was 25 to 200 nM.

`Cc1nnc(-c2ccc(-n3nc(Br)c4cnc(N[C@@H]5CC[C@@](C)(C(=O)N6CCOCC6)C5)nc43)cc2)s1` [[(1R,3R)-3-[[3-bromo-1-[4-(5-methyl-1,3,4-thiadiazol-2-yl)phenyl]pyrazolo[3,4-d]pyrimidin-6-yl]amino]-1-methyl-cyclopentyl]-morpholino-methanone] showed an IC50 [1] of 25 to 200 nM.

With `CNC(=O)[C@@]1(CC(F)F)CC[C@@H](Nc2ncc3c(Br)nn(-c4ccc(-c5nnc(C)o5)cc4)c3n2)C1` [(1S,3R)-3-[[3-bromo-1-[4-(5-methyl-1,3,4-oxadiazol-2-yl)phenyl]pyrazolo[3,4-d]pyrimidin-6-yl]amino]-1-(2,2-difluoroethyl)-N-methyl-cyclopentanecarboxamide] the IC50 [1] was 25 to 200 nM.

`CNC(=O)[C@]1(C)CC[C@@H](Nc2ncc3c(Br)nn(-c4cc(Cl)cc([C@@H](C)N)c4)c3n2)C1` was tested, and the IC50 [1] was under 25 nM.

Work on `COCC(C)(C)NC(=O)[C@@H]1CC[C@@H](Nc2ncc3c(Br)nn(-c4ccc5ncccc5c4)c3n2)C1` [(1R,3R)-3-((3-bromo-1-(quinolin-6-yl)-1H-pyrazolo[3,4-d]pyrimidin-6-yl)amino)-N-(1-methoxy-2-methylpropan-2-yl)cyclopentane-1-carboxamide] yielded an IC50 [1] of 200 to 500 nM.

`CNC(=O)[C@]1(C)CC[C@@H](Nc2ncc3c(Br)nn(-c4ccc(-c5ncco5)c(CC(=O)N(C)C)c4)c3n2)C1` [(1R,3R)-3-[[3-bromo-1-[3-[2-(dimethylamino)-2-oxo-ethyl]-4-oxazol-2-yl-phenyl]pyrazolo [3,4-d]pyrimidin-6-yl]amino]-N,1-dimethyl-cyclopentanecarboxamide] showed an IC50 [1] of 25 to 200 nM.

Compound `CNC(=O)[C@]1(C)CC[C@@H](Nc2ncc3c(Br)nn(-c4ccc(-c5ncco5)c(CCN5CCOCC5)c4)c3n2)C1` [(1R,3R)-3-[[3-bromo-1-[3-(2-morpholino-ethyl)-4-oxazol-2-yl-phenyl]pyrazolo [3,4-d]pyrimidin-6-yl]amino]-N,1-dimethyl-cyclopentanecarboxamide] has an IC50 [1] of 25 to 200 nM.

`CNC(=O)[C@]1(C#N)CC[C@@H](Nc2ncc3c(Br)nn(-c4ccc(-c5nnc(C)s5)c(CCC#N)c4)c3n2)C1` was tested, and the IC50 [1] was 25 to 200 nM.

For `CNC(=O)[C@]1(CCOC)CC[C@@H](Nc2ncc3c(Br)nn(-c4ccc(-c5nnc(C)s5)cc4)c3n2)C1`, the IC50 [1] was 25 to 200 nM.

Work on `Cc1nnc(-c2ccc(-n3nc(Br)c4cnc(N[C@@H]5CCOC5)nc43)cc2)s1` [3-bromo-1-[4-(5-methyl-1,3,4-thiadiazol-2-yl)phenyl]-N-[(3R)-tetrahydrofuran-3-yl] pyrazolo[3,4-d]pyrimidin-6-amine] yielded an IC50 [1] of 25 to 200 nM.

`CNC(=O)[C@]1(CCOC)CC[C@@H](Nc2ncc3c(Br)nn(-c4ccc(-c5nnc(C)s5)c(CCC#N)c4)c3n2)C1` [(1R,3R)-3-[[3-bromo-1-[3-(2-cyano-ethyl)-4-(5-methyl-1,3,4-thiadiazol-2-yl)phenyl]pyrazolo[3,4-d]pyrimidin-6-yl]amino]-1-(2-methoxyethyl)-N-methyl-cyclopentanecarboxamide; 2,2,2-trifluoroacetic acid] showed an IC50 [1] of 25 to 200 nM.

`CNC(=O)[C@]1(C)CC[C@@H](Nc2ncc3c(Br)nn(-c4cc(Cl)cc(C(=O)N(C)C5CNC5)c4)c3n2)C1` [N-(azetidin-3-yl)-3-[3-bromo-6-[[(1R,3R)-3-methyl-3-(methylcarbamoyl)cyclopentyl]amino]pyrazolo[3,4-d]pyrimidin-1-yl]-5-chloro-N-methyl-benzamide] was tested, and the IC50 [1] was 25 to 200 nM.

With `CNC(=O)[C@]1(CC#N)CC[C@@H](Nc2ncc3c(Br)nn(-c4cc(F)c5ncccc5c4)c3n2)C1` [Example 40, (1R,3R)-3-((3-bromo-1-(8-fluoroquinolin-6-yl)-1H-pyrazolo[3,4-d]pyrimidin-6-yl)amino)-1-(cyanomethyl)-N-methylcyclopentane-1-carboxamide hydrochloride] the IC50 [2] was under 25 nM.

Work on `CNC(=O)[C@@H]1CC[C@@H](Nc2ncc3c(Br)nn(-c4ccc(-c5ncco5)cc4)c3n2)C1` [Example 10, (1R,3R)-3-((3-bromo-1-(4-(oxazol-2-yl)phenyl)-1H-pyrazolo[3,4-d]pyrimidin-6-yl)amino)-N-methylcyclopentane-1-carboxamide] yielded an IC50 [2] of 25 to 200 nM.

In the case of `CCCCNC(=O)[C@@H]1CC[C@@H](Nc2ncc3c(Br)nn(-c4cc(C#N)c5ncccc5c4)c3n2)C1` [(1R,3R)-3-((3-bromo-1-(8-cyanoquinolin-6-yl)-1H-pyrazolo[3,4-d]pyrimidin-6-yl)amino)-N-butylcyclopentane-1-carboxamide], the IC50 [1] is reported as 200 to 500 nM.
